# Test results published in patent US12102616B2, “Psilocin mucate” (LOBE SCIENCES LTD., priority 2022, dated 2024).
# Values joined by “and” are separate entries in the source; they are usually repeats but may differ in a detail not shown here. Identical values can stand only once. “Also recorded” adds a separate entry of the source. Like-named read-outs stand apart in the source and are kept apart here.
# Experiments:
# healthy subjects = assay: Mood assessment, MMSE test and adverse events in the phase one study
# [1] = Phase one single-dose pharmacokinetic study of capsules containing psilocin mucic acid conjugate (plasma psilocin)
# Swiss Albino Mice = assay: 28-day oral (gavage) toxicity study with 14-day recovery
# [2] = Stability studies on psilocin mucate capsule over a 12 month period; assay type: physicochemical; conditions: for Appearance POL-0018, Product / Assay TM-22-0392 (% Label Claim) / Total Impurities / Water Content by cKF TM-22-0012, Mean (2) / Water Content by cKF TM-22-0012, Prep 1 and 2 / Impurities TM-22-0392 (individual impurities): capsules
# Method: Additional stability studies were performed on psilocin mutate (also known as psilocin mucic acid salt or conjugate or psilocin galactaric acid salt or conjugate) capsule over a 12 month period.
# Appearance was evaluated by viewing of the sample on a watchglass over a black and white background.
# Assay conditions for Test/Method TM-022-0392 assessing stability and impurities were as follows: • Mobile phase: MPA: 945 mL water, 5 mL H3PO4, pH to 5.7 with NaOH; MPB: Acetonitrile • Diluent: 80:20 Water:MeOH • Standard: 0.4 mg/mL Psilocin Mucic RS in Diluent • Sample: 0.4 mg/mL Psilocin Mucic API in Diluent • HPLC Conditions are depicted in Table 3.
# • System suit: RSD NMT 2.0% (5 injections), Tailing NMT 2.0, Plate count NLT 10000
# Calculations were against a bracketing external standard.
# Identity of psilocin mucate was verified by ultraviolet (UV) assessment, wherein the UV spectrum of the main peak in the standard matched the UV spectrum of the main peak in the sample and by retention time wherein the retention time ratio was 0.98-1.02.
# [3] = cited from earlier work; for AUC / Tmax / Cmax: psilocin
# [4] = Usona's investigator's brochure; cited from earlier work
# [5] = single oral dose equivalent to 2 mg psilocin
# [6] = plasma psilocin, 2 mg p.o. PM fasted
# [7] = 2, 10 and 20 mg/kg bw/day oral, 28 days
# [8] = females G4R vs G1R, considered not related
# [9] = males G4R vs G1R, considered not related
# [10] = 0.224 mg/kg p.o. PY fasted by Hasler
structure (smiles),measurement,setting,value
CN(C)CCc1c[nH]c2cccc(O)c12.O=C(O)[C@@H](O)[C@H](O)[C@H](O)[C@@H](O)C(=O)O [psilocin mucate],FEELING STATUS,"healthy subjects; individual subjects 01-10, single oral capsule, 2 mg psilocin equivalent, assessed by psychiatrist","Feel little beet happier, better; also recorded: Feel calm, less thoughts, happier; also recorded: Euphoric, better mood, it helps with; also recorded: Euphories, better mood, sleepy, feel; also recorded: Sleepy, better thoughts, less worried; also recorded: Did not feel change in mood but feeling; also recorded: More relaxed, want to drink sweet; also recorded: Better mood, feels hyper sexual; also recorded: Felt high mood, now they feel in good; also recorded: Less anxious, better mood, increase"
same,MMSE,"healthy subjects; individual subjects 01-10, single oral capsule, 2 mg psilocin equivalent, hallucinogenic substance expected to lower score below 25",30 (3×) and 28 (3×) and 27 (2×) and 29 (2×)
same,adverse events: dizziness,healthy subjects; [5],one subject reported slight and transient dizziness
same,serious adverse effects,healthy subjects; [5],no serious adverse effects were reported
same,subjects with no hallucinogenic effect,healthy subjects; [5],9 of the 10
same,food effect upon oral administration,[1]; from comparison with published psilocybin studies,no food effect
same,Cmax as compared to an equal amount of psilocin generated by the metabolism of psilocybin,[1]; oral,higher Cmax
same,decrease in Tmax as compared to an equivalent formulation of psilocybin,[1]; oral,≥ 2 fold
same,delivered concentrations of psilocin compared with intravenous psilocybin,[1]; oral formulation,equivalent to intravenous doses of psilocybin
same,patient-to-patient variability as compared to psilocybin treatment,[1]; oral formulation,decreased patient-to-patient variability
same,AUC,[1]; [6],11.189 μG H/L
same,Tmax,[1]; [6],0.75 h
same,Cmax,"[1]; plasma psilocin, 2 mg p.o. PM fasted, psilocin dose 2 mg, 0.026 mg/kg p.o.",3.66 ng/mL
same,time until psilocin is essentially eliminated from circulation,"[1]; single oral capsule, 2 mg psilocin equivalent",less than 12 hours
same,Functional observation battery,Swiss Albino Mice; [7],No treatment related effects were observed
same,Mortality and morbidity check,Swiss Albino Mice; [7],No mortality or morbidity was observed at any dose level
same,"effects on general health, body weight, feed consumption, clinical pathology, gross pathology and histopathology","Swiss Albino Mice; 28 consecutive days, both sexes",no psilocin mucate related effects
same,"Histopathology, overall",Swiss Albino Mice; G1 and G4 main group organs/tissues,no psilocin mucate related histopathological changes
same,histopathological lesions (background findings),"Swiss Albino Mice; G4 female, considered toxicologically irrelevant",single incidence of cortical cyst (unilateral) in kidneys; also recorded: presence of luteal cyst (unilateral) in ovaries
same,AChE,"Swiss Albino Mice; G4 male and G3 female animals vs vehicle control, considered non-psilocin mucate related",statistically significant increase
same,body weight gain,"Swiss Albino Mice; G4 males (20 mg/kg bw/day), day 1-8, vs control, not considered adverse",statistically significant decrease
same,net body weight gain (day 1 to day 43),"Swiss Albino Mice; G4 recovery females vs control, not due to treatment",statistically significant increase
same,foot splay measurement,"Swiss Albino Mice; G4 recovery group females (20 mg/kg bw/day), last day of recovery, vs control, considered random biological variation",statistically significant increase
same,Gross pathology,"Swiss Albino Mice; all groups, both sexes",No gross changes were observed
same,"Clinical chemistry parameters, overall",Swiss Albino Mice; both sexes,No psilocin mucate related changes were observed
same,"Hematology parameters, overall",Swiss Albino Mice; both sexes,No psilocin mucate related changes were observed
same,Coagulation parameters,"Swiss Albino Mice; both sexes, main and recovery group",No statistically significant changes were observed
same,total bile acids,"Swiss Albino Mice; females G3 and G4 vs G1, considered not related",statistically significant increase
same,aspartate aminotransferase and inorganic phosphorous,Swiss Albino Mice; [8],decrease
same,"creatinine, total protein, albumin and calcium",Swiss Albino Mice; [8],increase
same,mean corpuscular hemoglobin,Swiss Albino Mice; [8],increase
same,relative adrenals and brain weight,Swiss Albino Mice; [8],decrease
same,absolute and relative thymus weight,"Swiss Albino Mice; females G4 vs G1, considered not related",statistically significant increase
same,white blood cells and platelets,"Swiss Albino Mice; females G4 vs vehicle control, considered not related",statistically significant increase
same,Ophthalmological examination,Swiss Albino Mice; main and recovery group animals,No ocular abnormalities were observed
same,relative eosinophil count,"Swiss Albino Mice; males G2 and G4 vs vehicle control G1, considered not related",statistically significant decrease
same,chloride,"Swiss Albino Mice; males G3 vs G1, considered not related",decrease
same,absolute and relative lungs weight and absolute prostate with seminal vesicles and coagulating gland weight,Swiss Albino Mice; [9],statistically significant decrease
same,red blood cells and hemoglobin,Swiss Albino Mice; [9],statistically significant increase
same,reticulocytes,Swiss Albino Mice; [9],decrease
same,inorganic phosphorous,"Swiss Albino Mice; males G4 vs vehicle control, considered not related",statistically significant increase
same,feed consumption,"Swiss Albino Mice; males, G4 recovery group, day 29-36, vs control, considered incidental",statistically significant increase
same,"Acetyl cholinesterase (AChE) level, overall","Swiss Albino Mice; mouse, in vivo",No psilocin mucate related changes were observed
same,NOAEL translated to a dose for an average person of 70 kg,"Swiss Albino Mice; mouse, in vivo","1,400 mg"
same,"Urinalysis parameters, overall","Swiss Albino Mice; mouse, in vivo",No psilocin mucate related changes were observed
same,NOAEL,"Swiss Albino Mice; oral gavage, 28 consecutive days",20 mg/kg bw/day
same,urine pH,"Swiss Albino Mice; recovery female group (G4R) vs vehicle control recovery group, considered not related",statistically significant decrease
same,Clinical signs and detailed clinical signs observation,Swiss Albino Mice; treatment and recovery period,No clinical signs of toxicity were observed
same,stable for (duration of stability),[2],at least 12 months
same,"Appearance POL-0018, Product",[2]; 1 Month,Conforms
same,Assay TM-22-0392 (% Label Claim),[2]; 1 Month,98.8%
same,Total Impurities,[2]; 1 Month,0.05%
same,"Water Content by cKF TM-22-0012, Mean (2)",[2]; 1 Month,0.9 % w/w
same,"Water Content by cKF TM-22-0012, Prep 1 and 2",[2]; 1 Month,0.9 % w/w and 0.8 % w/w
same,Impurities TM-22-0392 (individual impurities),"[2]; 1 Month, impurity at RRT 1.11",RRT 1.11/0.05%
same,"Appearance POL-0018, Product",[2]; 3 Months,Conforms
same,Assay TM-22-0392 (% Label Claim),[2]; 3 Months,101.1%
same,Total Impurities,[2]; 3 Months,<0.05%
same,"Water Content by cKF TM-22-0012, Mean (2)",[2]; 3 Months,1.6 % w/w
same,"Water Content by cKF TM-22-0012, Prep 1 and 2",[2]; 3 Months,2.0 % w/w and 1.1 % w/w
same,Impurities TM-22-0392 (individual impurities),"[2]; 3 Months, all impurities",All < 0.05%
same,"Appearance POL-0018, Product",[2]; 5 Months,Conforms
same,Assay TM-22-0392 (% Label Claim),[2]; 5 Months,103.2%
same,Total Impurities,[2]; 5 Months,<0.05%
same,"Water Content by cKF TM-22-0012, Mean (2)",[2]; 5 Months,1.3 % w/w
same,"Water Content by cKF TM-22-0012, Prep 1 and 2",[2]; 5 Months,1.2 % w/w and 1.3 % w/w
same,Impurities TM-22-0392 (individual impurities),"[2]; 5 Months, all impurities",All < 0.05%
same,"Appearance POL-0018, Product",[2]; 6 Months,Conforms
same,Assay TM-22-0392 (% Label Claim),[2]; 6 Months,98.8%
same,Total Impurities,[2]; 6 Months,<0.05%
same,"Water Content by cKF TM-22-0012, Mean (2)",[2]; 6 Months,1.4 % w/w
same,"Water Content by cKF TM-22-0012, Prep 1 and 2",[2]; 6 Months,1.4 % w/w
same,Impurities TM-22-0392 (individual impurities),"[2]; 6 Months, all impurities",All < 0.05%
same,"Appearance POL-0018, Product",[2]; 12 Months,Conforms
same,Assay TM-22-0392 (% Label Claim),[2]; 12 Months,98.4%
same,Total Impurities,[2]; 12 Months,<0.05%
same,"Water Content by cKF TM-22-0012, Mean (2)",[2]; 12 Months,1.3 % w/w
same,"Water Content by cKF TM-22-0012, Prep 1 and 2",[2]; 12 Months,1.2 % w/w and 1.3 % w/w
same,Impurities TM-22-0392 (individual impurities),"[2]; 12 Months, all impurities",All < 0.05%
same,Total Impurities,[2]; Initial,0.08%
same,"Water Content by cKF TM-22-0012, Mean (2)",[2]; Initial,1.2 % w/w
same,Impurities TM-22-0392 (individual impurities),"[2]; Initial, impurity at RRT 1.12",RRT 1.12/0.08%
same,Assay TM-22-0392 (% Label Claim),"[2]; Initial, specification 90.0-110.0%",98.8%
same,"Water Content by cKF TM-22-0012, Prep 1 and 2","[2]; Initial, specification NMT 10.0%",1.1 % w/w and 1.2 % w/w
same,"Appearance POL-0018, Product","[2]; Initial, specification white to light brown powder partially filling white opaque capsules",Conforms
CN(C)CCc1c[nH]c2cccc(OP(=O)(O)O)c12 [psilocybin],AUC,[3]; [10],32.71 μG H/L
same,Tmax,[3]; [10],1.75 h
same,Cmax,"[3]; 0.224 mg/kg p.o. PY fasted by Hasler, psilocin dose 0.161 mg/kg p.o.",8.2 ng/mL
same,AUC,[3]; 1 mg i.v. PY by Hasler,4 μG H/L
same,Tmax,[3]; 1 mg i.v. PY by Hasler,0.0317 h
same,Cmax,"[3]; 1 mg i.v. PY by Hasler, psilocin dose 0.718 mg, 0.01 mg/kg i.v.",12.9 ng/mL
same,AUC,[3]; 25 mg p.o. PY fasted by Holze,83 μG H/L
same,Tmax,[3]; 25 mg p.o. PY fasted by Holze,1.9 h
same,Cmax,"[3]; 25 mg p.o. PY fasted by Holze, psilocin dose 17.95 mg, 0.256 mg/kg",17 ng/mL
same,"bioavailability, generally reported",[3]; varies from paper to paper,50-80%
same,lethal dose 50% (LD50),[4],285 mg/kg
